Chromatographic logP data for 10 molecules are collected here from US7629294B2, “Pyrazolopyrimidines” (Bayer CropScience LP, priority 2004, dated 2009).

A short description of one data set: physchem. Conditions: logP.
Broadly, the chromatographic logP is lipophilicity estimated from chromatographic retention. A higher chromatographic logP goes with higher lipophilicity. On to `CCC(C)c1c(Cl)nc2c(C(=O)OC)cnn2c1N[C@H](C)C(C)C` (stereo partly drawn) [methyl 5-chloro-6-(sec-butyl)-7-[(R)-3-methyl-2-butylamino][1,5-a]pyrimidine-3-carboxylate], for which the chromatographic logP is 4.49.
Turning to `CCC(C)c1c(Cl)nc2c(C(=O)OC)cnn2c1N[C@@H](C)C(C)C` (stereo partly drawn) [methyl 5-chloro-6-(sec-butyl)-7-[(S)-3-methyl-2-butylamino]pyrazolo[1,5-a]pyrimidine-3-carboxylate], the chromatographic logP was 4.49.
As for `CCC(C)c1c(Cl)nc2c(C(=O)OC)cnn2c1N[C@@H](C)C(F)(F)F` (stereo partly drawn) [methyl 5-chloro-6-(sec-butyl)-7-[(S)-3-trifluoroisopropylamino]pyrazolo[1,5-a]pyrimidine-3-carboxylate], the chromatographic logP turned out to be 3.76.
Same read-out and setting: the figure for `COC(=O)c1cnn2c(N[C@@H](C)C(C)C)c(C3CCCC3)c(Cl)nc12` [methyl 5-chloro-6-cyclopentyl-7-[(S)-3-methyl-2-butylamino]pyrazolo[1,5-a]pyrimidine-3-carboxylate] is 4.72; for `COC(=O)c1cnn2c(N[C@@H](C)C(F)(F)F)c(C3CCCC3)c(Cl)nc12` [methyl 5-chloro-6-cyclopentyl-7-[(S)-3-trifluoroisopropylamino]pyrazolo[1,5-a]pyrimidine-3-carboxylate] it is 3.89.

Still in this data set, the particulars now being: logPs.
Take `COC(=O)c1cnn2c(N[C@H](C)C(C)C)c(-c3c(F)cccc3Cl)c(Cl)nc12` [methyl 5-chloro-6-(2-chloro-6-fluorophenyl)-7-{[(1R)-1,2-dimethylpropyl]amino}pyrazolo[1,5-a]pyrimidine-3-carboxylate]: the chromatographic logP worked out at 4.12.
On the same count and under the same terms, the figure for `COC(=O)c1cnn2c(O)c(-c3c(F)cccc3Cl)c(O)nc12` [methyl 6-(2-chloro-6-fluorophenyl)-5,7-dihydroxypyrazolo[1,5-a]pyrimidine-3-carboxylate] is 0.55; for `COC(=O)c1cnn2c(NC(C)C(C)C)c(-c3sccc3C)c(OC)nc12` (stereo not shown) [methyl 7-(1,2-dimethylpropylamino)-5-methoxy-6-(3-methylthiophen-2-yl)pyrazolo[1,5-a]-pyrimidine-3-carboxylate] it is 4.6.

A short description of the next data set: logP (HPLC).
Conditions: not given
`CCOP(=O)(OCC)c1cnn2c(NC(C)C(C)(C)C)c(-c3ccc(F)cc3Cl)c(Cl)nc12` (stereo not shown) [Example XXIII, diethyl {5-chloro-6-(2-chloro-4-fluorophenyl)-7-[(1,2,2-trimethylpropyl)-amino]pyrazolo[1,5-a]pyrimidin-3-yl}phosphonate]: the chromatographic logP turned out to be 4.48.
On the same count and under the same terms, the figure for `CCOP(=O)(O)c1cnn2c(NC(C)C(C)(C)C)c(-c3ccc(F)cc3Cl)c(Cl)nc12` (stereo not shown) [Example XXIV, ethyl hydrogen {5-chloro-6-(2-chloro-4-fluorophenyl)-7-[(1,2,2-trimethylpropyl)-amino]pyrazolo[1,5-a]pyrimidin-3-yl}phosphonate] is 3.01.
